Reference: US11357748B2, “Methods for treating mendelian disorders of the epigenetic machinery” (THE JOHNS HOPKINS UNIVERSITY, priority 2014, dated 2022)
“Also recorded” adds a separate entry of the source. Read-outs that look alike come from different tables or passages of the source.

Tests used:
[1] = system: mouse models of Rubinstein-Taybi syndrome; settings: cited from earlier work
[2] = system: H4 acetylation machinery (H4ac indicator); assay: H4 acetylation (H4ac) indicator reporter allele, GFP fluorescence by FACS in stably transfected T293/HEK293 cells; assay type: cell-based; settings: FIG. 18C, 18D, 19A, 19B, 20
Excerpt: The acetyl reporter protein quantifies the activity of the acetylation machinery (acetylation of H4 specifically at the 5th, 8th, 12th and 16th Lysine's) and comprises an H4 tail on one end (the target for acetylation) and a TBP associated factor II (TAFII) bromodomain on the other end of the reporter protein (FIG. 5A). The TAFII bromodomain only recognizes and binds to the acetylated H4 tail, resulting in reconstitution of GFP structure and function (i.e. fluorescence). Therefore, the reporter protein has no fluorescence unless it is acetylated by the acetylation system of the nucleus of the cell.
Epigenetic reporter alleles were synthesized (OriGene, Rockville, Md.) using published sequences for component elements (Baird et al. (1999) Proc. Natl. Acad. Sci. 96:11241-6; Souslova et al. (2007) BMC Biotechnol. 7:37). […] FACS data were analyzed using FlowJo (Tree Star Inc, Ashland, Oreg.). […]
(§1) Epigenetic reporter systems were created that monitor either H4 acetylation or H3K4 trimethylation machinery activity in an effort to determine whether there is an ongoing activity deficiency in cells from Kmt2d^+/βGeo mice (FIG. 18A). Both reporter alleles encode halves of green fluorescent protein separated by a flexible linker region (Baird et al. (1999) Proc. Natl. Acad. Sci. 96: 11241-6) with a histone tail and a histone reader at the N- and C-termini, respectively. […]

[3] = system: H3K4 trimethylation activity in Kmt2d+/βGeo MEFs; assay: H3K4me3 indicator in murine embryonic fibroblasts (MEFs) from Kmt2d+/βGeo and Kmt2d+/+ mice; assay type: cell-based, mouse; settings: Kmt2d+/βGeo MEFs; FIG. 18H, 22A, 23
Excerpt: An H3K4 trimethylation reporter was also created (FIG. 5B). This reporter is based on the H3 tail on one end and the TBP associated factor III (TAFIII) […] on the other end; the TAFIII […] only identifies and binds to trimethylated K4 on H3. When the H3K4 site gets trimethylated, the TAFIII […] can bind to the modified H3 tail and bring the two parts of the separated GFP in close proximity. The activity of the epigenetic modification system can be quantified through fluorescence.
Epigenetic reporter alleles were synthesized (OriGene, Rockville, Md.) using published sequences for component elements (Baird et al. (1999) Proc. Natl. Acad. Sci. 96:11241-6; Souslova et al. (2007) BMC Biotechnol. 7:37). Single nucleotide mutations were created using the QuickChange Lightening kit (Agilent Technologies Inc, Santa Clara, Calif.). For H4ac indicator, K5R, K8R, K12R, K16R and K20R (MUT indicator) were introduced. For H3K4me3 indicator, K4Q and D890A/W891A and M882A (three separate constructs) were introduced. […] FACS data were analyzed using FlowJo (Tree Star Inc, Ashland, Oreg.). […]
as §1, with “respectively. When the histone tail corresponding to either H4 or H3 is modified by acetylation or methylation, respectively, GFP structure and function are reconstituted, as detected by a fluorescent readout (FIG. 18B). The acetyl reporter protein quantifies the activity of the acetylation machinery (acetylation of H4 specifically at sites K5, K8, K12, and K16) and comprises an H4 tail (residues 1-30) on one end and a TATA binding protein (TBP)-associated factor II (TAFII) bromodomain on the other end (FIG. 18A).” for “respectively.”

HDAC = settings: Phiel et al. (2001); cited from earlier work

Question: What does the source list for O=C(CCCCCCC(=O)Nc1ccccc1)NO [SAHA, N′-hydroxy-N-phenyl-octanediamide]?
Answer: neurological phenotypes in Rubinstein-Taybi mouse models ([1]; intracerebroventricular administration): respond; H4ac indicator fluorescence response to increasing amounts of drug [2]: linear fluorescence response; also recorded: increasing fluorescence; also recorded: increases acetylation of the indicator; also recorded: increased signal

Question: With CC(C=CC(=O)NO)=CC(C)C(=O)c1ccc(N(C)C)cc1 (centres unmarked) [trichostatin A, 7-[4-(dimethylamino)phenyl]-N-hydroxy-4,6-dimethyl-7-oxohepta-2,4-dienamide] as the molecule, how does the “neurological phenotypes in Rubinstein-Taybi mouse models” value ([1]; intraperitoneal administration) read?
Answer: respond

Question: Which “H3K4 trimethylation activity in Kmt2d+/βGeo cells upon treatment” value [3] does the source give for Nc1ccccc1NC(=O)c1ccc(CNC(=O)OCc2cccnc2)cc1 [MS275, Pyridin-3-ylmethyl N-[[4-[(2-aminophenyl)carbamoyl]phenyl]methyl]carbamate] here?
Answer: enhanced; also recorded: improved

Question: With CCCC(CCC)C(=O)O [valproic acid, 2-Propylpentanoic acid] as the molecule, how does the HDAC inhibitor activity (HDAC) read?
Answer: potent HDACi
